From US8759301B2, “Gene fusion targeted therapy” (The Regents of The University of Michigan, priority 2010, dated 2014)
Changes are numbered by the printed parent chain. Read-outs that look alike come from different tables or passages of the source. Where a SMILES comes first, the peptide text is derived from it.

Assays:
[1] = tested on: TMPRSS2 and ERG loci in DU145 cells
[2] = tested on: TMPRSS2 and ERG loci in LNCaP cells
[3] = tested on: TMPRSS2-ERG fusion transcript in LNCaP cells; settings: DHT 10 nM, 12 hours
Method: It was investigated whether stimulation with androgen (e.g. DHT) could create gene fusions by coupling androgen stimulation with an agent that causes DNA double strand breaks. LNCaP cells were hormone depleted, followed by stimulation with DHT (10 nM, 12 hours), irradiation (1 or 3 Gy) and clonal expansion of single cells in 96 well plates using flow sorting. The presence of the TMPRSS2-ERG fusion transcript was determined using quantitative reverse-transcription PCR (QRT-PCR) with both SYBR green and TaqMan assays spanning the chimeric region.

[4] = target: T1, ETS domain stretch RALRYYYDK (Arg367 to Lys375 in ERG), R367→K (Homo sapiens, UniProt P11308, R367K); type: binding
T1 construct: used a series of overlapping 19 amino acids segments of ETS domain; made in house
T1 sequence (P11308 311-391 R367K): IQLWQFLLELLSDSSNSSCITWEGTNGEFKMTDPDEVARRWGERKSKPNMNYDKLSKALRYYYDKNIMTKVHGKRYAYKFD
Source text: Interactive phage clones were sequenced and analyzed using bioinformatics approaches to identify consensus peptide sequence. […] The domains within ERG that mediate the binding of isolated phage clones were mapped using a panel of ERG deletion mutants expressed as HaloTag fusion protein. A total of 6 domains, namely N-term, ETS, CAE, PNT, CD, and CTD (Carrere et al., Oncogene, 1998. 16(25): p. 3261-8), were cloned and expressed in TNT SP6 wheat germ system. Without purification, the expression reactions were coated on HaloLink Array system and incubated with individual phage clones. The interaction signal was detected by Cy3-labled anti-M13 antibody, which is specifically directed against the phage capsid protein (FIG. 28). […] Further mapping studies used a series of overlapping 19 amino acids segments of ETS domain specifically localized the binding site to a 9 amino-acids conserved stretch […] (SEQ ID NO. 1) corresponding to the residues Arg^367 to Lys^375 in ERG (FIG. 29). The conserved region of the amino acids specifically involved in peptide binding was then located.

[5] = tested on: RWPE-1 cells transduced with ERG adenovirus; assay: ERG-mediated invasion of RWPE-1 cells transduced with ERG adenovirus; type: cell-based; settings: TAT-tagged peptides, 2 μM, 48 hours, RWPE-1 with ERG adenovirus
Method: (§1) Invaded cells were stained with crystal violet and photographed.
To investigate the ability of ERG-binding peptides to block ERG-mediated invasion, the prostate cell lines RWPE-1 transduced with ERG or LACZ adenovirus were incubated with TAT-tagged peptides. […] The relative number of invaded cells was also quantified by colorimetric assays.

VCaP [6] = assay: Cell proliferation with TAT-peptide, VCaP; type: cell-based; settings: FIG. 40
Source text: Standard cell proliferation and apoptosis assays (Chinnaiyan et al., Cell, 1995. 81(4): p. 505-12; Chinnaiyan et al., Proc Natl Acad Sci USA, 2000. 97(4): p. 1754-9; Varambally et al., Nature, 2002. 419(6907): p. 624-9) are used to assess the inhibitory role of peptides in prostate cell proliferation driven by TMPRSS2:ETS fusions, using both the over-expression series and stable-knockdown series.

DU145 = assay: Cell invasion with TAT-peptides, DU145; type: cell-based; settings: FIG. 39
Source text: as §1

VCaP [7] = tested on: VCaP
Method: (§2) Briefly, equal numbers of the indicated cells were seeded onto the basement membrane matrix (EC matrix, Chemicon) present in the insert of a 24-well culture plate, with fetal bovine serum added to the lower chamber as a chemoattractant. After 48 h, non-invading cells and the EC matrix were removed by a cotton swab. Invaded cells were stained with crystal violet and photographed. The inserts were treated with 10% acetic acid and absorbance was measured at 560 nm.

VCaP [8] = assay: Cell invasion with TAT-peptides, VCaP; settings: FIG. 39
Method: as §2

ERG = target: T2, ERG (Homo sapiens, UniProt P11308)
T2 sequence (P11308 1-479): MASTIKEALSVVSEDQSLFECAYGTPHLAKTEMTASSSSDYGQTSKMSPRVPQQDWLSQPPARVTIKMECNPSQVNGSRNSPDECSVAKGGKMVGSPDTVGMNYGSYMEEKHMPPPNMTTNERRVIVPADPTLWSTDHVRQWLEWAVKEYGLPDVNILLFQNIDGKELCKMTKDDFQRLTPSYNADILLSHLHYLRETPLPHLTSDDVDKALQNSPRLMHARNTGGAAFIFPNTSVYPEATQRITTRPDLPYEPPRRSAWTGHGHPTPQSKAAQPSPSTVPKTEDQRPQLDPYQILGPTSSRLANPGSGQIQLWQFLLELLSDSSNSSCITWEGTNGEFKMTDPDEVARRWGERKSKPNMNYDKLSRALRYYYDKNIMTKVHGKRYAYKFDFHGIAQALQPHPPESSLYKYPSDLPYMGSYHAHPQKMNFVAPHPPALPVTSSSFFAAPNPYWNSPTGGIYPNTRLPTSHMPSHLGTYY

AR binding to ETS domain = target: T3, AR binding to ETS domain (Homo sapiens, UniProt P11308)
T3 sequence (P11308 311-391 limits assumed): T1 sequence (P11308 311-391 R367K) with K57R
Method: Beads were eluted by SDS loading buffer and blotted with anti-GST mAb specifically against GST-AR (FIG. 30).
The cDNAs and fragments are cloned into pFN19A vector per manufacturer's protocol. In vitro translated proteins are generated by a wheat germ expression system (Promega) and immobilized onto HaloLink magnetic beads. After washing, the conjugated beads are incubated with GST-AR fusion proteins in the presence or absence of peptides. The bound proteins are analyzed by SDS-PAGE and blotted with anti-GST mAb (Sigma).

VCaP [9] = assay: DNA damage in VCaP with TAT peptides; type: cell-based; settings: FIG. 42
[10] = tested on: TMPRSS2-ERG and wild-type ERG transcripts; type: cell-based
Method: All PCR experiments were performed in triplicates.

Row | Molecule | VCaP proliferation (VCaP [6]) | DU145 invasion (DU145) | cell invasion driven by ERG (VCaP [7]) | VCaP invasion (VCaP [8]) | ERG transcription activities (ERG) | ERG interactome (through ETS domain) (AR binding to ETS domain) | further results
1 | C[C@]12CCC(=O)C[C@@H]1CC[C@@H]1[C@@H]2CC[C@]2(C)[C@@H](O)CC[C@@H]12 [DHT, Dihydrotestosterone] | – | – | – | – | – | – | proximity between TMPRSS2 and ERG [1]: not observed; proximity between the TMPRSS2 and ERG loci [2]: induced proximity; clones harboring TMPRSS2-ERG fusion transcripts ([3]; then 1 Gy irradiation): 2.3%; clones harboring TMPRSS2-ERG fusion transcripts ([3]; then 3 Gy irradiation): 25%
2 | CC(C)C[C@H](NC(=O)[C@H](CO)NC(=O)CNC(=O)[C@H](Cc1ccccc1)NC(=O)[C@H](CO)NC(=O)[C@@H](N)CC(C)C)C(=O)N1CCC[C@H]1C(=O)O [LSFGSLP] (H-LSFGSLP-OH) | – | – | – | – | – | – | phage peptide binding after single amino acid substitution R367→K [4]: completely abolished
3 | LPPYLFT | – | – | – | – | – | – | ERG-driven invasion [5]: blocked
4 | TAT-LPPYLFT: TAT linked to LPPYLFT (SEQ ID NO: 45) (not fully specified; left off: small tags and cut ends) | inhibited | not | attenuated | inhibit | blocked | blocked | –
5 | TAT-LSFGSLP: TAT linked to LSFGSLP (SEQ ID NO: 2) (not fully specified; left off: small tags and cut ends) | inhibits | not | attenuated | inhibit | blocked | blocked | DNA damage in VCaP (VCaP [9]): inhibit
6 | UGG UCA GAG AGA AGC AAU A [wild-type ERG siRNA] | – | – | – | – | – | – | TMPRSS2-ERG expression [10]: did not affect
